Key:
[1] = Cytotoxicity against human T47D cells assessed as reduction in cell viability after 24 hrs by MTT assay; assay type: functional, cell-based
[2] = Cytotoxicity against human PC3 cells assessed as cell growth inhibition at 200 uM after 48 hrs by MTT assay relative to control; assay type: functional; conditions: PC-3, 48 h, read-out: GI
[3] = Cytotoxicity against human LNCAP cells assessed as cell growth inhibition at 200 uM after 48 hrs by MTT assay relative to control; assay type: functional; conditions: read-out: GI
[4] = Downregulation of telomerase expression in human T47D cells after 72 hrs in presence of curcumin by SYBR green-dye based RT-PCR analysis; assay type: functional, cell-based
[5] = Cytotoxicity against human DU145 cells assessed as cell growth inhibition at 200 uM after 48 hrs by MTT assay relative to control; assay type: functional; conditions: DU-145, 48 h, read-out: GI
[6] = Cytotoxicity against human T47D cells assessed as reduction in cell viability after 24 hrs in presence of curcumin by MTT assay; assay type: functional, cell-based
[7] = Cytotoxicity against human LoVo cells assessed as reduction in cell growth after 24 hrs by trypan blue exclusion assay; assay type: functional, cell-based
[8] = Cytotoxicity against human LoVo cells assessed as reduction in cell growth at 50 to 200 uM after 24 hrs by trypan blue exclusion assay; assay type: functional
[9] = Antitumor activity against human HT-29 cells xenografted in nude mouse assessed as tumor growth inhibition at 200 mg/kg, po administered 5 days per week for 32 days; assay type: functional; conditions: HT-29, po, read-out: TGI
[10] = Antitumor activity against humanPC3 cells xenografted in nude mouse assessed as tumor growth inhibition at 100 mg/kg, po administered via gavage for 5 days per week for 7 weeks relative to control; assay type: functional; conditions: Homo sapiens, PC-3, po; read-out: TGI
[11] = Cytotoxicity against human ARCaPM cells assessed as cell growth inhibition at 200 uM after 48 hrs by MTT assay relative to control; assay type: functional; conditions: read-out: GI
[12] = Cytotoxicity against human LNCAP cells assessed as cell growth inhibition at 25 uM after 48 hrs in presence of 15 nM doxorubicin by manual cell counting; assay type: functional
[13] = Antitumor activity against wild type B6/129PF2 mouse lung tumor assessed reduction in urethane-induced tumor growth at 742 mg/kg, po administered via gavage for 5 days per week for 18 weeks starting from 8 weeks after urethane injection measured 25 weeks after first urethane injection; assay type: functional; conditions: B6/129PF2, po, read-out: TGI
[14] = molecular target: Cytochrome P450 2C9 (Homo sapiens, UniProt P11712); assay: Inhibition of CYP2C9 in human liver microsomes using (S)-warfarin as substrate at after 30 mins by LC-MS/MS analysis; assay type: ADME
Cytochrome P450 2C9, sequence (P11712 whole entry): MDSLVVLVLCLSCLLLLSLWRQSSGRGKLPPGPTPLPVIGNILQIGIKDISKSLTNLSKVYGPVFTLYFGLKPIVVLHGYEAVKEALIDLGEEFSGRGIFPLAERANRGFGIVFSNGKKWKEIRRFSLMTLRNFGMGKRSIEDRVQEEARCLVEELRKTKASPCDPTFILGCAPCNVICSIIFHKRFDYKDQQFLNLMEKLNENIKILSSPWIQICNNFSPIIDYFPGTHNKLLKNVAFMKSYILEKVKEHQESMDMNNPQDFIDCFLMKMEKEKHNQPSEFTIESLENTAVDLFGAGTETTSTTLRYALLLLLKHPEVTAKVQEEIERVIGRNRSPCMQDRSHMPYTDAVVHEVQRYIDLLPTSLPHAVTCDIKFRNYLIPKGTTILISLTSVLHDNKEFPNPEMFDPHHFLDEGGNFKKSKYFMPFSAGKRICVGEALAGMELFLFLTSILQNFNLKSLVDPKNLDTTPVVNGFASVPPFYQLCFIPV

[15] = tested on: Hepatitis C virus; assay: Antiviral activity against Hepatitis C virus in liver transplanted patient with established HCV recurrence assessed as reduction in viral load at 20 mg/kg, iv administered for 14 days; assay type: functional, Hepacivirus hominis
[16] = Cytotoxicity against human DU145 cells assessed as cell growth inhibition at 100 uM after 48 hrs in presence of 25 nM doxorubicin by manual cell counting; assay type: functional, DU-145

SMILES | IC50 [1] | inhibition of growth at 200 µM [2] | inhibition of growth at 200 µM [3] | IC50 [4] | inhibition of growth at 200 µM [5] | IC50 [6] | IC50 [7] | growth inhibition (GI) [8] | inhibition in vivo at 200 mg/kg [9] | inhibition in vivo at 100 mg/kg [10] | inhibition of growth at 200 µM [11] | growth inhibition (GI) [12] | inhibition in vivo at 742 mg/kg [13] | IC50 [14] | Activity [15] | growth inhibition (GI) [16]
COc1cc(/C=C/C(=O)CC(=O)/C=C/c2ccc(O)c(OC)c2)ccc1O [CURCUMIN] | 30 µM |  |  |  |  |  |  |  |  |  |  |  |  |  |  | 
COc1cc([C@H]2Oc3cc([C@H]4Oc5cc(O)cc(O)c5C(=O)[C@@H]4O)ccc3O[C@@H]2CO)ccc1O [SILYBIN A] | 110 µM | 60% | 48.7% | 12 µM | 73.8% | 20 µM | 50 to 200 µM | 30 - 49% | ≤ 48% | 40% | 18.5% | 62 - 69% | 71% | 18 µM | 2.3 | 74 - 87%
